Results taken from the supplement of paper PMC10307832.

Assays:
Assay in all cases: relative viability (nuclei count vs DMSO), 5 days (fraction); higher = more cells survive
IPA-3 + Decitabine = compound: C1=CC=C2C(=C1)C=CC(=C2SSC3=C(C=CC4=CC=CC=C43)O)O [IPA-3] + Nc1ncn([C@H]2C[C@H](O)[C@@H](CO)O2)c(=O)n1 [Decitabine] (partner 2 µM)
Summary of the method: (§1)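 Lung cancer cell lines, seeded in 1536-well plates, were treated the following day by pin tool with a single drug or with five library-drug doses (not always all listed) in √10 steps on top of a fixed anchor-drug dose. Cells were fixed and nuclei stained in one step after 5 days, and nuclei were counted. Relative viability is the nuclei count for treated wells divided by that for vehicle wells, reported as medians of duplicate plates.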

Doramapimod + Olaparib = compound: Cc1ccc(-n2nc(C(C)(C)C)cc2NC(=O)Nc2ccc(OCCN3CCOCC3)c3ccccc23)cc1 [Doramapimod] + O=C(c1cc(Cc2n[nH]c(=O)c3ccccc23)ccc1F)N1CCN(C(=O)C2CC2)CC1 [Olaparib] (partner 8 µM)
Summary of the method: as §1

RAF265 + Crizotinib = compound: Cn1c(Nc2ccc(C(F)(F)F)cc2)nc2cc(Oc3ccnc(-c4ncc(C(F)(F)F)[nH]4)c3)ccc21 [RAF265] + C[C@@H](Oc1cc(-c2cnn(C3CCNCC3)c2)cnc1N)c1c(Cl)ccc(F)c1Cl [Crizotinib] (partner 1 µM)
Summary of the method: as §1

RAF265 + Linsitinib = compound: Cn1c(Nc2ccc(C(F)(F)F)cc2)nc2cc(Oc3ccnc(-c4ncc(C(F)(F)F)[nH]4)c3)ccc21 [RAF265] + C[C@]1(O)C[C@@H](c2nc(-c3ccc4ccc(-c5ccccc5)nc4c3)c3c(N)nccn32)C1 [Linsitinib] (partner 1 µM)
Summary of the method: as §1

Cell Line	relative viability (IPA-3 + Decitabine; first compound 0.2 µM)	relative viability (IPA-3 + Decitabine; first compound 0.6325 µM)	relative viability (IPA-3 + Decitabine; first compound 2 µM)	relative viability (IPA-3 + Decitabine; first compound 6.325 µM)	relative viability (IPA-3 + Decitabine; first compound 20 µM)	relative viability (Doramapimod + Olaparib; first compound 0.02 µM)	relative viability (Doramapimod + Olaparib; first compound 0.06325 µM)	relative viability (Doramapimod + Olaparib; first compound 0.2 µM)	relative viability (Doramapimod + Olaparib; first compound 0.6325 µM)	relative viability (Doramapimod + Olaparib; first compound 2 µM)	relative viability (RAF265 + Crizotinib; first compound 0.01 µM)	relative viability (RAF265 + Crizotinib; first compound 0.03162 µM)	relative viability (RAF265 + Crizotinib; first compound 0.1 µM)	relative viability (RAF265 + Crizotinib; first compound 0.3162 µM)	relative viability (RAF265 + Crizotinib; first compound 1 µM)	relative viability (RAF265 + Linsitinib; first compound 0.01 µM)	relative viability (RAF265 + Linsitinib; first compound 0.03162 µM)	relative viability (RAF265 + Linsitinib; first compound 0.1 µM)	relative viability (RAF265 + Linsitinib; first compound 0.3162 µM)	relative viability (RAF265 + Linsitinib; first compound 1 µM)
HCC-44	0.951	0.943	0.879	0.924	0.846	0.995	0.976	0.993	0.979	0.977	0.791	0.679	0.854	0.83	0.772	0.643	0.617	0.667	0.661	0.64
HCC-78	0.74	0.665	0.618	0.548	0.649	0.779	0.715	0.796	0.856	0.729	0.337	0.288	0.381	0.301	0.359	0.553	0.468	0.574	0.47	0.439
HCC-366	0.399	0.35	0.349	0.335	0.321	0.331	0.333	0.318	0.368	0.303	0.487	0.473	0.739	0.626	0.404	0.674	0.69	0.881	0.748	0.459
HCC-827	0.359	0.34	0.33	0.312	0.327	0.766	0.596	0.6	0.679	0.396	0.931	1	1.01		0.871	0.968	0.973	0.978		0.762
HOP-62	0.193	0.213	0.231	0.229	0.235	0.315	0.369	0.424	0.495	0.467	0.972		0.714	0.772	0.629	0.89		1.07	0.976	0.604
IA-LM						0.797	0.81	0.724	0.708	0.875	0.711	0.646	0.803	0.768	0.642	0.641	0.532	0.536	0.732	0.404
LC-2-ad	0.788	0.822	0.82	0.84	0.788	0.692	0.801	0.759	0.732	0.766	0.451	0.442	0.492	0.474	0.305	0.807	0.762	0.727	0.316	0.293
LCLC-97TM1	0.242	0.216	0.211	0.196	0.235	0.454	0.477	0.539	0.426	0.254	0.355	0.274	0.293	0.181	0.121	0.169	0.158	0.149	0.136	0.11
NCI-H522	0.703	0.642	0.534	0.689	0.765	0.582	0.669	0.696	0.604	0.608										
NCI-H1299						0.97	0.963	0.834	0.864	0.803	0.966	0.95	0.93	0.703	0.645	1	0.878	0.749	0.578	0.414
NCI-H1395	0.688	0.666	0.728	0.687	0.714	0.463	0.462	0.466	0.498	0.421						1.14	1	1.05	1.08	0.741
NCI-H1563											0.88	0.916	0.849	0.801	0.824	1.13	1.32	1.17	1.26	1.18
NCI-H1648	0.529	0.465	0.4	0.59	0.525	0.99	0.664	0.8	0.981	0.552										
NCI-H1650	0.44	0.396	0.386	0.349	0.374	0.82	0.831	0.682	0.874	0.884	1.03	0.83	1.15	0.877	0.913					
NCI-H1703						0.533	0.513	0.384	0.38	0.31	0.567	0.512	0.581	0.449	0.195	0.43	0.561	0.819	0.171	0.251
NCI-H1793	0.545	0.495	0.566	0.442	0.529	0.741	0.816	0.768	1.08	0.821						0.794	0.767	0.779	0.46	0.376
NCI-H2170	0.462	0.421	0.424	0.445	0.439	0.596	0.643	0.57	0.588	0.605	1.22	1.08	1.09	0.784	0.771					
NCI-H2228						0.558	0.599	0.857	0.811	0.592	0.382	0.369	0.333	0.356	0.321	0.628	0.698	0.409	0.436	0.327
NCI-H2342	0.772	0.75	0.737	0.798	0.839	0.496	0.475	0.472	0.473	0.431										
SW 900	0.501	0.453	0.49	0.415	0.476	0.842	0.728	0.895	0.939	0.846										
